Experiments:
[1] = system: osteoclast differentiation of Raw 264.7 cells; test: RANKL-induced osteoclast differentiation inhibition (osteoclast count); format: cell-based; details: Mus musculus, RAW264.7, 96 h; 10 mM; 50 ng/mL RANKL, 4 days; read-out: osteoclast differentiation inhibitory effect
Experimental: The media were removed after the incubation, followed by washing with PBS, and then the cells were fixed and stained using a leukocyte acid phosphatase kit (Sigma). After the staining, the osteoclasts were counted using a microscope, and the osteoclast count in a sample was expressed as a percentage relative to the control.

[2] = system: nitric oxide (NO) production in RAW264.7 cells; test: Nitric oxide (NO) production inhibition, GRIESS assay, LPS-stimulated cells; format: cell-based; details: 12.5 μM; 500 ng/mL LPS, 24 hours
Experimental: After the incubation, 100 μL of the supernatant was taken and transferred into a 96-well plate, and 100 μL of GRIESS solution was added, followed by incubation for 10 minutes. Thereafter, the absorbance was measured at 540 nm using a microplate reader to determine the NO production inhibitory effect.

Row | SMILES | inhibition at 10000 µM [1] [%] | NO production [2] [%]
1 | NCCCC(O)(P(=O)(O)O)P(=O)(O)O [alendronate] | 72.2 | 
2 | Cc1ccc(-c2cc(C(F)(F)F)nn2-c2ccc(S(N)(=O)=O)cc2)cc1 [celecoxib] |  | 46.7

Reference: patent US11452752B2, “Composition for antioxidation, anti-inflammation, or osteoclast differentiation inhibition” (NATURAL ENDOTECH CO., LTD., priority 2017, dated 2022)
